Measured values from ChEMBL document CHEMBL1151757, “Synthesis, radiosynthesis, and biological evaluation of fluorine-18-labeled 2beta-carbo(fluoroalkoxy)-3beta-(3'-((Z)-2-haloethenyl)phenyl)nortropanes: candidate radioligands for in vivo imaging of the serotonin transporter with positron emission tomography” (J Med Chem, 2008).

Experiments:
Thalamus [1] = assay: Drug uptake in anesthetized cynomolgus monkey brain thalamus after 12.5 mins postinjection; type: ADME, organism-based, Macaca fascicularis; parameters: unit not given here; conditions: in vivo
Thalamus [2] = assay: Drug uptake in anesthetized cynomolgus monkey brain thalamus after 6.5 mins postinjection; type: ADME, organism-based, Macaca fascicularis; parameters: unit not given here; conditions: in vivo
Putamen [3] = assay: Drug uptake in anesthetized cynomolgus monkey brain putamen after 3.5 mins postinjection; type: ADME, organism-based, Macaca fascicularis; conditions: in vivo
Putamen [4] = assay: Drug uptake in anesthetized cynomolgus monkey brain putamen after 215 mins postinjection; type: ADME, organism-based, Macaca fascicularis; conditions: in vivo
[5] = Drug uptake in anesthetized cynomolgus monkey brain frontal lobe after 65 mins postinjection; type: ADME, organism-based, Macaca fascicularis; conditions: in vivo
Putamen [6] = assay: Drug uptake in anesthetized cynomolgus monkey brain putamen after 35 mins postinjection; type: ADME, organism-based, Macaca fascicularis; parameters: unit not given here; conditions: in vivo
[7] = Ratio of drug uptake in pons to cerebellum in anesthetized cynomolgus monkey after 145 mins postinjection; type: ADME, organism-based, Macaca fascicularis; conditions: in vivo
Putamen [8] = assay: Drug uptake in anesthetized cynomolgus monkey brain putamen after 135 mins postinjection; type: ADME, organism-based, Macaca fascicularis; conditions: in vivo, 2.25 h
Medulla [9] = assay: Drug uptake in anesthetized cynomolgus monkey brain medulla after 1.5 mins postinjection; type: ADME, organism-based, Macaca fascicularis; conditions: in vivo, 0.025 h
[10] = Ratio of drug uptake in putamen to cerebellum in anesthetized cynomolgus monkey after 235 mins postinjection; type: ADME, organism-based, Macaca fascicularis; conditions: in vivo
[11] = Ratio of drug uptake in occipital lobe to cerebellum in anesthetized cynomolgus monkey after 12.5 mins postinjection; type: ADME, organism-based, Macaca fascicularis; conditions: in vivo
Medulla [12] = assay: Drug uptake in anesthetized cynomolgus monkey brain medulla after 6.5 mins postinjection; type: ADME, organism-based, Macaca fascicularis; conditions: in vivo
Caudate [13] = assay: Drug uptake in anesthetized cynomolgus monkey brain caudate after 85 mins postinjection; type: ADME, organism-based, Macaca fascicularis, Caudate nucleus; conditions: in vivo
Putamen [14] = assay: Drug uptake in anesthetized cynomolgus monkey brain putamen after 125 mins postinjection; type: ADME, organism-based, Macaca fascicularis; conditions: in vivo
Caudate [15] = assay: Drug uptake in anesthetized cynomolgus monkey brain caudate after 105 mins postinjection; type: ADME, organism-based, Macaca fascicularis, Caudate nucleus; conditions: in vivo, 1.75 h
Caudate [16] = assay: Drug uptake in anesthetized cynomolgus monkey brain caudate after 165 mins postinjection; type: ADME, organism-based, Macaca fascicularis, Caudate nucleus; conditions: in vivo, 2.75 h
Thalamus [17] = assay: Drug uptake in anesthetized cynomolgus monkey brain thalamus after 155 mins postinjection; type: ADME, organism-based, Macaca fascicularis; parameters: unit not given here; conditions: in vivo
Midbrain [18] = assay: Drug uptake in anesthetized cynomolgus monkey brain midbrain after 155 mins postinjection; type: ADME, organism-based, Macaca fascicularis; conditions: in vivo
Medulla [19] = assay: Drug uptake in anesthetized cynomolgus monkey brain medulla after 215 mins postinjection; type: ADME, organism-based, Macaca fascicularis; conditions: in vivo
Pons [20] = assay: Drug uptake in anesthetized cynomolgus monkey brain pons after 2.5 mins postinjection; type: ADME, organism-based, Macaca fascicularis; conditions: in vivo
Putamen [21] = assay: Drug uptake in anesthetized cynomolgus monkey brain putamen after 85 mins postinjection; type: ADME, organism-based, Macaca fascicularis; parameters: unit not given here; conditions: in vivo
Pons [22] = assay: Drug uptake in anesthetized cynomolgus monkey brain pons after 22.5 mins postinjection; type: ADME, organism-based, Macaca fascicularis; conditions: in vivo, 0.375 h
Pons [23] = assay: Drug uptake in anesthetized cynomolgus monkey brain pons after 18.5 mins postinjection; type: ADME, organism-based, Macaca fascicularis; conditions: in vivo
Putamen [24] = assay: Drug uptake in anesthetized cynomolgus monkey brain putamen after 55 mins postinjection; type: ADME, organism-based, Macaca fascicularis; parameters: unit not given here; conditions: in vivo
[25] = Ratio of drug uptake in putamen to cerebellum in anesthetized cynomolgus monkey after 75 mins postinjection; type: ADME, organism-based, Macaca fascicularis; conditions: in vivo, 1.25 h
[26] = Ratio of drug uptake in medulla to cerebellum in anesthetized cynomolgus monkey after 65 mins postinjection; type: ADME, organism-based, Macaca fascicularis; conditions: in vivo
Pons [27] = assay: Drug uptake in anesthetized cynomolgus monkey brain pons after 6.5 mins postinjection; type: ADME, organism-based, Macaca fascicularis; conditions: in vivo
Midbrain [28] = assay: Drug uptake in anesthetized cynomolgus monkey brain midbrain after 12.5 mins postinjection; type: ADME, organism-based, Macaca fascicularis; parameters: unit not given here; conditions: in vivo
Thalamus [29] = assay: Drug uptake in anesthetized cynomolgus monkey brain thalamus after 215 mins postinjection; type: ADME, organism-based, Macaca fascicularis; parameters: unit not given here; conditions: in vivo
Pons [30] = assay: Drug uptake in anesthetized cynomolgus monkey brain pons after 1.5 mins postinjection; type: ADME, organism-based, Macaca fascicularis; conditions: in vivo, 0.025 h
Caudate [31] = assay: Drug uptake in anesthetized cynomolgus monkey brain caudate after 215 mins postinjection; type: ADME, organism-based, Macaca fascicularis, Caudate nucleus; conditions: in vivo
[32] = Ratio of drug uptake in caudate to cerebellum in anesthetized cynomolgus monkey after 95 mins postinjection; type: ADME, organism-based, Macaca fascicularis; conditions: in vivo
Midbrain [33] = assay: Drug uptake in anesthetized cynomolgus monkey brain midbrain after 18.5 mins postinjection; type: ADME, organism-based, Macaca fascicularis; parameters: unit not given here; conditions: in vivo
Thalamus [34] = assay: Drug uptake in anesthetized cynomolgus monkey brain thalamus after 9.5 mins postinjection; type: ADME, organism-based, Macaca fascicularis; parameters: unit not given here; conditions: in vivo
[35] = Ratio of drug uptake in pons to cerebellum in anesthetized cynomolgus monkey after 105 mins postinjection; type: ADME, organism-based, Macaca fascicularis; conditions: in vivo, 1.75 h
Medulla [36] = assay: Drug uptake in anesthetized cynomolgus monkey brain medulla after 35 mins postinjection; type: ADME, organism-based, Macaca fascicularis; conditions: in vivo
Medulla [37] = assay: Drug uptake in anesthetized cynomolgus monkey brain medulla after 75 mins postinjection; type: ADME, organism-based, Macaca fascicularis; conditions: in vivo, 1.25 h
Putamen [38] = assay: Drug uptake in anesthetized cynomolgus monkey brain putamen after 115 mins postinjection; type: ADME, organism-based, Macaca fascicularis; parameters: unit not given here; conditions: in vivo
Medulla [39] = assay: Drug uptake in anesthetized cynomolgus monkey brain medulla after 65 mins postinjection; type: ADME, organism-based, Macaca fascicularis; conditions: in vivo
Putamen [40] = assay: Drug uptake in anesthetized cynomolgus monkey brain putamen after 0.5 mins postinjection; type: ADME, organism-based, Macaca fascicularis; conditions: in vivo
Thalamus [41] = assay: Drug uptake in anesthetized cynomolgus monkey brain thalamus after 135 mins postinjection; type: ADME, organism-based, Macaca fascicularis; parameters: unit not given here; conditions: in vivo, 2.25 h
Thalamus [42] = assay: Drug uptake in anesthetized cynomolgus monkey brain thalamus after 0.5 mins postinjection; type: ADME, organism-based, Macaca fascicularis; conditions: in vivo
[43] = Drug uptake in anesthetized cynomolgus monkey brain cerebellum after 1.5 mins postinjection; type: ADME, organism-based, Macaca fascicularis; conditions: in vivo, 0.025 h
[44] = Drug uptake in anesthetized cynomolgus monkey brain occipital lobe after 225 mins postinjection; type: ADME, organism-based, Macaca fascicularis; conditions: in vivo, 3.75 h
Medulla [45] = assay: Drug uptake in anesthetized cynomolgus monkey brain medulla after 85 mins postinjection; type: ADME, organism-based, Macaca fascicularis; conditions: in vivo
Thalamus [46] = assay: Drug uptake in anesthetized cynomolgus monkey brain thalamus after 4.5 mins postinjection; type: ADME, organism-based, Macaca fascicularis; parameters: unit not given here; conditions: in vivo, 0.075 h
Pons [47] = assay: Drug uptake in anesthetized cynomolgus monkey brain pons after 115 mins postinjection; type: ADME, organism-based, Macaca fascicularis; conditions: in vivo
Medulla [48] = assay: Drug uptake in anesthetized cynomolgus monkey brain medulla after 12.5 mins postinjection; type: ADME, organism-based, Macaca fascicularis; conditions: in vivo
Caudate [49] = assay: Drug uptake in anesthetized cynomolgus monkey brain caudate after 155 mins postinjection; type: ADME, organism-based, Macaca fascicularis, Caudate nucleus; conditions: in vivo
[50] = Drug uptake in anesthetized cynomolgus monkey brain cerebellum after 225 mins postinjection; type: ADME, organism-based, Macaca fascicularis; conditions: in vivo, 3.75 h

O=C(OCC[18F])C1C2CCC(CC1c1cccc(/C=C\I)c1)N2 (stereo not given)
Drug uptake (Thalamus [1]): 3.32 | Drug uptake (Thalamus [2]): 2.49 | Drug uptake (Putamen [3]): 0.96 | Drug uptake (Putamen [4]): 2.53 | Drug uptake [5]: 2.78 | Drug uptake (Putamen [6]): 4.28 | Ratio [7]: 1.4 | Drug uptake (Putamen [8]): 3.44 | Drug uptake (Medulla [9]): 0.13 | Ratio [10]: 1.8 | Ratio [11]: 0.7 | Drug uptake (Medulla [12]): 2.75 | Drug uptake (Caudate [13]): 3.53 | Drug uptake (Putamen [14]): 3.58 | Drug uptake (Caudate [15]): 3.33 | Drug uptake (Caudate [16]): 2.56 | Drug uptake (Thalamus [17]): 3.03 | Drug uptake (Midbrain [18]): 3.66 | Drug uptake (Medulla [19]): 2.43 | Drug uptake (Pons [20]): 0.44 | Drug uptake (Putamen [21]): 4.16 | Drug uptake (Pons [22]): 3.05 | Drug uptake (Pons [23]): 2.91 | Drug uptake (Putamen [24]): 4.37 | Ratio [25]: 1.4 | Ratio [26]: 1.2 | Drug uptake (Pons [27]): 2.02 | Drug uptake (Midbrain [28]): 3.95 | Drug uptake (Thalamus [29]): 2.38 | Drug uptake (Pons [30]): 0.09 | Drug uptake (Caudate [31]): 2.09 | Ratio [32]: 1.3 | Drug uptake (Midbrain [33]): 4.37 | Drug uptake (Thalamus [34]): 3.01 | Ratio [35]: 1.3 | Drug uptake (Medulla [36]): 4.05 | Drug uptake (Medulla [37]): 3.78 | Drug uptake (Putamen [38]): 3.74 | Drug uptake (Medulla [39]): 3.97 | Drug uptake (Putamen [40]): 0 | Drug uptake (Thalamus [41]): 3.33 | Drug uptake (Thalamus [42]): 0 | Drug uptake [43]: 0.11 | Drug uptake [44]: 1.22 | Drug uptake (Medulla [45]): 3.75 | Drug uptake (Thalamus [46]): 1.57 | Drug uptake (Pons [47]): 2.86 | Drug uptake (Medulla [48]): 3.37 | Drug uptake (Caudate [49]): 2.62 | Drug uptake [50]: 1.26
